# Experimental data from patent publication US10000454B2, “Antidiabetic tricyclic compounds” (Merck Sharp & Dohme Corp., priority 2014, dated 2018).
# Tests used:
# Human GPR40 [1] = biological target: T1, Human GPR40 (Homo sapiens, UniProt O14842); experiment: FLIPR assay, agonist-induced calcium mobilization; format: cell-based; design: expressed in transfected cells; conditions: GPR40/CHO NFAT BLA cells
# In short: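 CHO NFAT-BLA cells stably expressing human GPR40 were loaded 100 min at room temperature with buffer (HMS, 0.1% BSA, 20 mM HEPES, 2.5 mM probenecid, pH 7.4) containing 8 μM fluo-4 AM. The agonist-induced calcium rise after compound addition was read as FLIPR fluorescence.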
# Human GPR40 [2] = biological target: T1, Human GPR40; experiment: Inositol Phosphate Turnover (IP1) Assay; format: cell-based; design: expressed in transfected cells; host or cells: HEK cells (stably expressing the aequorin reporter); conditions: HEK cells stably expressing human GPR40, CisBio IP-One kit
# In short: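 HEK cells stably expressing human GPR40, plated 15,000 per well and incubated 16 h, then exposed to compound for 60 min at 37 degrees in stimulation buffer. IP1 measured by HTRF (IP-One) as 665/620 nm ratio, converted to IP1 concentration via a standard curve.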
# T1 sequence (O14842 whole entry): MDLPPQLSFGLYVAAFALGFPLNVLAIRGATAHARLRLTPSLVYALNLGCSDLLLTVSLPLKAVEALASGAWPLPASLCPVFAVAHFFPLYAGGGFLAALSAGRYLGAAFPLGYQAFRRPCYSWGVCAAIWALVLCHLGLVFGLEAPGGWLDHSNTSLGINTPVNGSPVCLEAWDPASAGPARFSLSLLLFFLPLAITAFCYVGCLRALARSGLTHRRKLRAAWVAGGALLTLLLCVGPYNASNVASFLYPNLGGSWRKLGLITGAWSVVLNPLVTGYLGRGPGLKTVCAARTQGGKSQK
SMILES,EC50 (Human GPR40 [1]),EC50 (Human GPR40 [2])
"Cc1nc(OCCC(C)(C)O)ccc1C1CCCc2ccc(COc3cc4c(cn3)[C@H]3[C@@H](C4)[C@@H]3C(=O)O)cc21 (stereo partly drawn) [Example 30, (5aR,6S,6aS)-3-((8-(6-(3-hydroxy-3-methylbutoxy)-2-methylpyridin-3-yl)-5,6,7,8-tetrahydronaphthalen-2-yl)methoxy)-5,5a,6,6a-tetrahydrocyclopropa[4,5] cyclopenta[1,2-c]pyridine-6-carboxylic acid]",33 nM,35 nM
O=C(O)[C@H]1[C@@H]2Cc3cc(OCc4ccc5c(c4)N(c4ccccc4C(F)(F)F)CC5)ncc3[C@@H]21 [Example 33],15.3 nM,26.2 nM
"O=C(O)[C@H]1[C@@H]2Cc3cc(OCc4cc5c(cc4F)CCCC5c4ccccc4C(F)(F)F)ncc3[C@@H]21 (stereo partly drawn) [Example 44, (5aR,6S,6aS)-3-((3-fluoro-8-(2-(trifluoro-methyl)phenyl)-5,6,7,8-tetrahydronaphthalen-2-yl)methoxy)-5,5a,6,6a-tetrahydrocyclopropa[4,5] cyclopenta[1,2-c]pyridine-6-carboxylic acid]",21 nM,68 nM
"O=C1CC(c2ccccc2C(F)(F)F)c2cc(COc3cc4c(cn3)[C@H]3[C@@H](C4)[C@@H]3C(=O)O)ccc21 (stereo partly drawn) [Example 2, (5aR,6S,6aS)-3-((1-oxo-3-(2-(trifluoromethyl)-phenyl)-2,3-dihydro-1H-inden-5-yl)methoxy)-5,5a,6,6a-tetrahydro-cyclopropa[4,5]cyclopenta [1,2-c]pyridine-6-carboxylic acid]",50.5 nM,47.4 nM
"CC1(C)CNC(c2ccccc2C(F)(F)F)c2c1ccc(COc1cc3c(cn1)[C@H]1[C@@H](C3)[C@@H]1C(=O)O)c2F (stereo partly drawn) [Example 74, (5aR,6S,6aS)-3-((8-fluoro-4,4-dimethyl-1-(2-(trifluoromethyl)phenyl)-1,2,3,4-tetrahydroisoquinolin-7-yl)methoxy)-5,5a,6,6a-tetrahydrocyclopropa[4,5]cyclopenta[1,2-c]pyridine-6-carboxylic acid]",6.75 nM,4.99 nM
"COc1ncccc1C1CCC(C)(C)c2cc(F)c(COc3cc4c(cn3)[C@H]3[C@@H](C4)[C@@H]3C(=O)O)cc21 (stereo partly drawn) [Example 27, (5aR,6S,6aS)-3-((3-fluoro-8-(2-methoxypyridin-3-yl)-5,5-dimethyl-5,6,7,8-tetrahydronaphthalen-2-yl)methoxy)-5,5a,6,6a-tetrahydrocyclopropa [4,5]cyclopenta[1,2-c]pyridine-6-carboxylic acid]",7.22 nM,15.6 nM
"Cc1c(COc2cc3c(cn2)[C@H]2[C@@H](C3)[C@@H]2C(=O)O)ccc2c1C(c1ccccc1C(F)(F)F)CCC2 (stereo partly drawn) [Example 43, (5aR,6S,6aS)-3-((1-methyl-8-(2-(trifluoro-methyl)phenyl)-5,6,7,8-tetrahydro-naphthalen-2-yl)methoxy)-5,5a,6,6a-tetrahydrocyclopropa[4,5] cyclopenta[1,2-c]pyridine-6-carboxylic acid]",38.8 nM,70.8 nM
"CC1(C)CC(c2ccccc2C(F)(F)F)c2cc(COc3cc4c(cn3)[C@H]3[C@@H](C4)[C@@H]3C(=O)O)c(F)cc21 (single isomer, unassigned) [Example 22]",11.9 nM,12.5 nM
"CC1(C)CC(c2ccccc2C(F)(F)F)c2cc(COc3cc4c(cn3)[C@H]3[C@@H](C4)[C@@H]3C(=O)O)ccc21 (stereo partly drawn) [Example 3, (5aR,6S,6aS)-3-((1,1-dimethyl-3-(2-(trifluoromethyl)phenyl)-2,3-dihydro-1H-inden-5-yl)methoxy)-5,5a,6,6a-tetrahydrocyclopropa[4,5]cyclopenta[1,2-c]pyridine-6-carboxylic acid]",9.28 nM,769 nM
"CC1(C)NC(c2ccccc2C(F)(F)F)c2cc(COc3cc4c(cn3)[C@H]3[C@@H](C4)[C@@H]3C(=O)O)ccc21 (stereo partly drawn) [Example 39, (5aR,6S,6aS)-3-((1,1-dimethyl-3-(2-(trifluoromethyl)phenyl)isoindolin-5-yl)methoxy)-5,5a,6,6a-tetrahydrocyclopropa[4,5]cyclopenta[1,2-c]pyridine-6-carboxylic acid]",13.9 nM,15.4 nM
"O=C(O)[C@H]1[C@@H]2Cc3cc(OCc4ccc5c(c4)C(c4ccccc4C(F)(F)F)CC54CCC4)ncc3[C@@H]21 (stereo partly drawn) [Example 6, (5aR,6S,6aS)-3-((3′-(2-(trifluoromethyl)phenyl)-2′,3′-dihydrospiro[cyclobutane-1,1′-inden]-5′-yl)methoxy)-5,5a,6,6a-tetrahydrocyclopropa[4,5]cyclopenta[1,2-c]pyridine-6-carboxylic acid]",22.9 nM,22.6 nM
"CC1(C)CNC(c2ccccc2C(F)(F)F)c2cc(COc3cc4c(cn3)[C@H]3[C@@H](C4)[C@@H]3C(=O)O)c(F)cc21 (single isomer, unassigned) [Example 72]",5.25 nM,5.13 nM
"CC1(C)CCN(c2ccccc2C(F)(F)F)c2cc(COc3cc4c(cn3)[C@H]3[C@@H](C4)[C@@H]3C(=O)O)c(F)cc21 [Example 53, (5aR,6S,6aS)-3-((6-fluoro-4,4-dimethyl-1-(2-(trifluoromethyl)phenyl)-1,2,3,4-tetrahydroquinolin-7-yl)methoxy)-5,5a,6,6a-tetrahydrocyclopropa[4,5]cyclopenta[1,2-c]pyridine-6-carboxylic acid]",8.38 nM,39.2 nM
"CC1(C)CC(c2ccccc2C(F)(F)F)c2cc(COc3cc4c(cn3)[C@H]3[C@@H](C4)[C@@H]3C(=O)O)c(F)cc21 (single isomer, unassigned) [Example 23]",19.9 nM,16.6 nM
"CC1=C(c2ccccc2C(F)(F)F)c2cc(COc3cc4c(cn3)[C@H]3[C@@H](C4)[C@@H]3C(=O)O)ccc2CC1 [Example 47, (5aR,6S,6aS)-3-((7-methyl-8-(2-(trifluoromethyl)-phenyl)-5,6-dihydro-naphthalen-2-yl)methoxy)-5,5a,6,6a-tetrahydrocyclo-propa[4,5]cyclopenta[1,2-c]pyridine-6-carboxylic acid]",11.4 nM,236 nM
"CC1(C)CN(c2ccccc2C(F)(F)F)c2cc(COc3cc4c(cn3)[C@H]3[C@@H](C4)[C@@H]3C(=O)O)c(F)cc21 [Example 32, (5aR,6S,6aS)-3-((5-fluoro-3,3-dimethyl-1-(2-(trifluoromethyl)phenyl)indolin-6-yl)methoxy)-5,5a,6,6a-tetrahydrocyclopropa[4,5]cyclopenta[1,2-c]pyridine-6-carboxylic acid]",8.94 nM,9.96 nM
"CC1(C)CC(c2c(F)cccc2F)c2cc(COc3cc4c(cn3)[C@H]3[C@@H](C4)[C@@H]3C(=O)O)ccc21 (stereo partly drawn) [Example 10, (5aR,6S,6aS)-3-((3-(2,6-difluorophenyl)-1,1-dimethyl-2,3-dihydro-1H-inden-5-yl)methoxy)-5,5a,6,6a-tetrahydro-cyclopropa[4,5]cyclopenta [1,2-c]pyridine-6-carboxylic acid]",4.9 nM,38.9 nM
"O=C(O)[C@H]1[C@@H]2Cc3cc(OCc4ccc5c(Br)cn(-c6ccccc6C(F)(F)F)c5c4)ncc3[C@@H]21 [Example 36, (5aR,6S,6aS)-3-({3-bromo-1-[2-(trifluoromethyl)phenyl]-1H-indol-6-yl}methoxy)-5,5a,6,6a-tetrahydrocyclopropa[4,5] cyclopenta[1,2-c]pyridine-6-carboxylic acid]",26.9 nM,47.6 nM
"CC1CCc2ccc(COc3cc4c(cn3)[C@H]3[C@@H](C4)[C@@H]3C(=O)O)cc2C1c1ccccc1C(F)(F)F (stereo partly drawn) [Example 46, (5aR,6S,6aS)-3-((7-methyl-8-(2-(trifluoromethyl)phenyl)-5,6,7,8-tetrahydronaphthalen-2-yl)methoxy)-5,5a,6,6a-tetrahydrocyclopropa[4,5]cyclopenta[1,2-c]pyridine-6-carboxylic acid]",8.74 nM,79.6 nM
"CC1(C)CC(c2ccccc2Cl)c2cc(COc3cc4c(cn3)[C@H]3[C@@H](C4)[C@@H]3C(=O)O)ccc21 (stereo partly drawn) [Example 11, (5aR,6S,6aS)-3-((3-(2-chlorophenyl)-1,1-dimethyl-2,3-dihydro-1H-inden-5-yl)methoxy)-5,5a,6,6a-tetrahydro-cyclopropa[4,5]cyclopenta [1,2-c]pyridine-6-carboxylic acid]",17.8 nM,35.1 nM
"CC1(C)CCC(c2ccccc2C(F)(F)F)c2cc(COc3cc4c(cn3)[C@H]3[C@@H](C4)[C@@H]3C(=O)O)c(F)cc21 (stereo partly drawn) [Example 55, (5aR,6S,6aS)-3-((3-fluoro-5,5-dimethyl-8-(2-(trifluoromethyl)phenyl)-5,6,7,8-tetrahydronaphthalen-2-yl)methoxy)-5,5a,6,6a-tetrahydrocyclopropa[4,5]cyclopenta[1,2-c]pyridine-6-carboxylic acid]",63.7 nM,70.2 nM
